Laboratory results from patent US6489469B1, “Method for storing or transporting erythritol solution” (Nikken Chemicals Co., Ltd., priority 1999, dated 2002).

Experiments:
[1] = system: Escherichia coli IFO 3972; assay: Viable Count of Escherichia coli IFO 3972 in Erythritol Solution; type: cell-based
Protocol: (§1) Erythritol solutions of respective concentrations in the range of from 30 to 60% were prepared. To these were inoculated Staphylococcus aureus IFO 13276, Bacillus subtilis IFO 3134, and Escherichia coli IFO 3972 as bacteria, Candida albicans IFO 1549 and Saccharomyces cerevisiae ATCC 9763 as yeasts, Aspergillus niger IFO 6342, Aspergillus flavus IFO 6343, and Penicillium funiculosum IFO 6345 as fungi, respectively, in a population (concentration) of 10,000 cells/mL or more. After the inoculation, the solutions were stored at 30, 37, 45, 50, or 60° C., respectively, for 56 days and the number of viable cell was determined daily. The determination of the number of viable cell was performed by a method of coating 0.1 mL of appropriately diluted sample cultivation on an agar plate and cultivating and counting the number of viable cell (the number of colony) that grew after the cultivation.

[2] = system: Candida albicans IFO 1549; assay: Viable Count of Candida albicans IFO 1549 in Erythritol Solution; type: cell-based
Protocol: as §1

OC[C@@H](O)[C@@H](O)CO [Erythritol Solution, erythritol]
2820 cells/mL: The Number of Viable Cell ([1]; 30° C., 40% w/w, Day 7)
prevented from growing: growth of the microbes ([1]; temperature of 50° C. or more) | growth of the microbes ([2]; temperature of 50° C. or more)
450 cells/mL: The Number of Viable Cell ([1]; 45° C., 30% w/w, Day 3)
10000 or more cells/mL: The Number of Viable Cell ([1]; 30° C., 30% w/w, Day 0) | The Number of Viable Cell ([1]; 30° C., 30% w/w, Day 3) | The Number of Viable Cell ([1]; 30° C., 30% w/w, Day 7) | The Number of Viable Cell ([1]; 30° C., 40% w/w, Day 0) | The Number of Viable Cell ([1]; 37° C., 30% w/w, Day 0) | The Number of Viable Cell ([1]; 37° C., 30% w/w, Day 3) | The Number of Viable Cell ([1]; 37° C., 40% w/w, Day 0) | The Number of Viable Cell ([1]; 45° C., 30% w/w, Day 0) | The Number of Viable Cell ([1]; 45° C., 40% w/w, Day 0) | The Number of Viable Cell ([1]; 45° C., 50% w/w, Day 0) | The Number of Viable Cell ([1]; 50° C., 30% w/w, Day 0) | The Number of Viable Cell ([1]; 50° C., 40% w/w, Day 0) | The Number of Viable Cell ([1]; 50° C., 50% w/w, Day 0)
140 cells/mL: The Number of Viable Cell ([1]; 37° C., 40% w/w, Day 7)
7780 cells/mL: The Number of Viable Cell ([1]; 30° C., 30% w/w, Day 14)
8270 cells/mL: The Number of Viable Cell ([1]; 37° C., 30% w/w, Day 7)
≥ 10000 cells/mL: The Number of Viable Cell ([2]; 37° C., 30% w/w, Day 0) | The Number of Viable Cell ([2]; 37° C., 30% w/w, Day 3) | The Number of Viable Cell ([2]; 37° C., 30% w/w, Day 7) | The Number of Viable Cell ([2]; 37° C., 30% w/w, Day 14) | The Number of Viable Cell ([2]; 37° C., 30% w/w, Day 28) | The Number of Viable Cell ([2]; 37° C., 30% w/w, Day 56) | The Number of Viable Cell ([2]; 37° C., 40% w/w, Day 0) | The Number of Viable Cell ([2]; 37° C., 40% w/w, Day 3) | The Number of Viable Cell ([2]; 37° C., 40% w/w, Day 7) | The Number of Viable Cell ([2]; 37° C., 40% w/w, Day 14) | The Number of Viable Cell ([2]; 37° C., 40% w/w, Day 28) | The Number of Viable Cell ([2]; 37° C., 40% w/w, Day 56) | The Number of Viable Cell ([2]; 45° C., 30% w/w, Day 0) | The Number of Viable Cell ([2]; 45° C., 40% w/w, Day 0) | The Number of Viable Cell ([2]; 45° C., 50% w/w, Day 0) | The Number of Viable Cell ([2]; 50° C., 30% w/w, Day 0) | The Number of Viable Cell ([2]; 50° C., 40% w/w, Day 0) | The Number of Viable Cell ([2]; 50° C., 50% w/w, Day 0)
3 days: time after which microbes died ([1]; temperature of 50° C. or more) | time after which microbes died ([2]; temperature of 50° C. or more)
110 cells/mL: The Number of Viable Cell ([1]; 30° C., 30% w/w, Day 28)
0 cells/mL: The Number of Viable Cell ([1]; 30° C., 30% w/w, Day 56) | The Number of Viable Cell ([1]; 30° C., 40% w/w, Day 28) | The Number of Viable Cell ([1]; 30° C., 40% w/w, Day 56) | The Number of Viable Cell ([1]; 37° C., 30% w/w, Day 14) | The Number of Viable Cell ([1]; 37° C., 30% w/w, Day 28) | The Number of Viable Cell ([1]; 37° C., 30% w/w, Day 56) | The Number of Viable Cell ([1]; 37° C., 40% w/w, Day 14) | The Number of Viable Cell ([1]; 37° C., 40% w/w, Day 28) | The Number of Viable Cell ([1]; 37° C., 40% w/w, Day 56) | The Number of Viable Cell ([1]; 45° C., 30% w/w, Day 7) | The Number of Viable Cell ([1]; 45° C., 30% w/w, Day 14) | The Number of Viable Cell ([1]; 45° C., 30% w/w, Day 28) | The Number of Viable Cell ([1]; 45° C., 30% w/w, Day 56) | The Number of Viable Cell ([1]; 45° C., 40% w/w, Day 3) | The Number of Viable Cell ([1]; 45° C., 40% w/w, Day 7) | The Number of Viable Cell ([1]; 45° C., 40% w/w, Day 14) | The Number of Viable Cell ([1]; 45° C., 40% w/w, Day 28) | The Number of Viable Cell ([1]; 45° C., 40% w/w, Day 56) | The Number of Viable Cell ([1]; 45° C., 50% w/w, Day 3) | The Number of Viable Cell ([1]; 45° C., 50% w/w, Day 7) | The Number of Viable Cell ([1]; 45° C., 50% w/w, Day 14) | The Number of Viable Cell ([1]; 45° C., 50% w/w, Day 28) | The Number of Viable Cell ([1]; 45° C., 50% w/w, Day 56) | The Number of Viable Cell ([1]; 50° C., 30% w/w, Day 3) | The Number of Viable Cell ([1]; 50° C., 30% w/w, Day 7) | The Number of Viable Cell ([1]; 50° C., 30% w/w, Day 14) | The Number of Viable Cell ([1]; 50° C., 30% w/w, Day 28) | The Number of Viable Cell ([1]; 50° C., 30% w/w, Day 56) | The Number of Viable Cell ([1]; 50° C., 40% w/w, Day 3) | The Number of Viable Cell ([1]; 50° C., 40% w/w, Day 7) | The Number of Viable Cell ([1]; 50° C., 40% w/w, Day 14) | The Number of Viable Cell ([1]; 50° C., 40% w/w, Day 28) | The Number of Viable Cell ([1]; 50° C., 40% w/w, Day 56) | The Number of Viable Cell ([1]; 50° C., 50% w/w, Day 3) | The Number of Viable Cell ([1]; 50° C., 50% w/w, Day 7) | The Number of Viable Cell ([1]; 50° C., 50% w/w, Day 14) | The Number of Viable Cell ([1]; 50° C., 50% w/w, Day 28) | The Number of Viable Cell ([1]; 50° C., 50% w/w, Day 56) | The Number of Viable Cell ([2]; 45° C., 30% w/w, Day 7) | The Number of Viable Cell ([2]; 45° C., 30% w/w, Day 14) | The Number of Viable Cell ([2]; 45° C., 30% w/w, Day 28) | The Number of Viable Cell ([2]; 45° C., 30% w/w, Day 56) | The Number of Viable Cell ([2]; 45° C., 40% w/w, Day 3) | The Number of Viable Cell ([2]; 45° C., 40% w/w, Day 7) | The Number of Viable Cell ([2]; 45° C., 40% w/w, Day 14) | The Number of Viable Cell ([2]; 45° C., 40% w/w, Day 28) | The Number of Viable Cell ([2]; 45° C., 40% w/w, Day 56) | The Number of Viable Cell ([2]; 45° C., 50% w/w, Day 3) | The Number of Viable Cell ([2]; 45° C., 50% w/w, Day 7) | The Number of Viable Cell ([2]; 45° C., 50% w/w, Day 14) | The Number of Viable Cell ([2]; 45° C., 50% w/w, Day 28) | The Number of Viable Cell ([2]; 45° C., 50% w/w, Day 56) | The Number of Viable Cell ([2]; 50° C., 30% w/w, Day 3) | The Number of Viable Cell ([2]; 50° C., 30% w/w, Day 7) | The Number of Viable Cell ([2]; 50° C., 30% w/w, Day 14) | The Number of Viable Cell ([2]; 50° C., 30% w/w, Day 28) | The Number of Viable Cell ([2]; 50° C., 30% w/w, Day 56) | The Number of Viable Cell ([2]; 50° C., 40% w/w, Day 3) | The Number of Viable Cell ([2]; 50° C., 40% w/w, Day 7) | The Number of Viable Cell ([2]; 50° C., 40% w/w, Day 14) | The Number of Viable Cell ([2]; 50° C., 40% w/w, Day 28) | The Number of Viable Cell ([2]; 50° C., 40% w/w, Day 56) | The Number of Viable Cell ([2]; 50° C., 50% w/w, Day 3) | The Number of Viable Cell ([2]; 50° C., 50% w/w, Day 7) | The Number of Viable Cell ([2]; 50° C., 50% w/w, Day 14) | The Number of Viable Cell ([2]; 50° C., 50% w/w, Day 28) | The Number of Viable Cell ([2]; 50° C., 50% w/w, Day 56)
11100 cells/mL: The Number of Viable Cell ([1]; 37° C., 40% w/w, Day 3)
190 cells/mL: The Number of Viable Cell ([2]; 45° C., 30% w/w, Day 3)
420 cells/mL: The Number of Viable Cell ([1]; 30° C., 40% w/w, Day 14)
10400 cells/mL: The Number of Viable Cell ([1]; 30° C., 40% w/w, Day 3)
